From PubChem BioAssay (NCI) come the findings set out here.

Experiment in all cases: inhibition of tumour cell growth, NCI panel, 48 h
Assay [1] has as its system MOLT-4 leukemia.
Assay [2] has as its system PC-3 prostate.
For assay [3], the system named is HS 578T breast.
Assay [4] has as its system SW-620 colon.
For assay [5], the system named is UACC-62 melanoma.
Assay [6] deals with A498 renal.
The subject of assay [7] is SR leukemia.
The subject of assay [8] is OVCAR-4 ovarian.
The subject of assay [9] is DU-145 prostate.
Assay [10] concerns A549 NSCLC.

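Test compounds were applied to cells in 96-well plates for 48 hours at 5 doses. GI50: concentration for 50% inhibition of growth. TGI denotes the concentration required for complete inhibition of growth.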

For `COc1ncnc2c(-c3ccccc3)cn(COCc3ccccc3)c12`, the GI50 is 2.7 µM in assay [1]; 2.72 µM in assay [2]; 7.8 µM in assay [3]; 4.6 µM in [4]; 2.1 µM in [5]; 1.96 µM in assay [6]. Moreover, the GI50 in assay [7] is 2.79 µM; in assay [8] it was 2.26 µM; in [9] it was 10.4 µM; in assay [10] it was 3.3 µM. The TGI in assay [1] is 7.12 µM; in assay [2] it was over 100 µM; in assay [3] it was over 100 µM; in assay [4], over 100 µM; in [5] it was 8.81 µM; in assay [6] it was 10.1 µM. Besides, the TGI in [7] is 43.2 µM; in assay [8], 9.5 µM; in assay [9] it was over 100 µM; in assay [10], 28.7 µM.

Regarding `C=C(CN1C(=O)CN(C)C1=O)c1ccc(C(=O)Nc2ccccc2N)cc1`, the GI50 in assay [1] was 7.29 µM; in assay [2], 12 µM; in assay [3] it was 22.5 µM; in assay [4] it was 19.4 µM; in assay [5], 9.31 µM; in assay [6] it was 4.3 µM. For the same compound, the GI50 in assay [7] was 1.41 µM; in [8] it was 4.65 µM; in [9] it was 25.9 µM; in [10] it was 25.4 µM. Also, the TGI in assay [1] was 63.3 µM; in assay [2], over 100 µM; in [3], over 100 µM; in assay [4] it was over 100 µM; in [5], 32.3 µM; in assay [6] it was 31.2 µM. Besides, the TGI was 10.7 µM in assay [7], 35.8 µM in assay [8], over 100 µM in [9] and over 100 µM in assay [10].

In the case of `CN(CCO)CC[C@H](CSc1ccccc1)Nc1ccc(S(=O)(=O)NC(=O)c2ccc(N3CCC([C@@H](O)c4ccccc4-c4ccc(Cl)cc4)CC3)cc2)cc1S(=O)(=O)C(F)(F)F`, the GI50 in [1] was 0.0719 µM; in [2], 2.51 µM; in [3] it was 2.23 µM; in assay [4], 2.43 µM; in assay [5], 1.8 µM; in assay [6] it was 0.0288 µM. Moreover, the GI50 in [7] is 2.23 µM; in assay [8], 17.6 µM; in assay [9], 21 µM; in assay [10], over 100 µM. The TGI in assay [1] came to 1.11 µM; in assay [2] it was 9.05 µM; in assay [3], 7.27 µM; in assay [4], 8.91 µM; in [5], 4.13 µM; in assay [6] it was 0.252 µM. The TGI in assay [7] was 35.7 µM; in assay [8], over 100 µM; in [9], over 100 µM; in assay [10], over 100 µM.

As to `O=C1C(Cl)=C(Nc2cccc(Cl)c2)C(=O)N1Cc1ccc(Cl)cc1`, the GI50 in assay [1] is 0.513 µM; in assay [2], 1.32 µM; in assay [3], 0.913 µM; in [4], 0.323 µM; in assay [5] it was 0.779 µM; in assay [6], 1.55 µM. For the same compound, the GI50 is 0.215 µM in [7], 4.68 µM in assay [8], 2.72 µM in assay [9] and 3.71 µM in assay [10]. The TGI in [1] was over 100 µM; in assay [2], 11.9 µM; in assay [3] it was 11.1 µM; in assay [4], 9.97 µM; in assay [5], 4.68 µM; in assay [6] it was 11.9 µM. In addition, the TGI in [8] was over 64.2 µM; in [9], 11.4 µM; in assay [10], 21 µM.

Regarding `COc1ccc(-c2nn(-c3cccc(Cl)c3)cc2-c2cc(-c3cccs3)[nH]c(=S)n2)cc1`, the GI50 is 3.03 µM in assay [1]; 3.09 µM in assay [2]; 4.26 µM in [3]; 3.79 µM in assay [4]; 2.78 µM in assay [5]; 3.01 µM in assay [6]. Further, the GI50 in assay [7] is 4 µM; in assay [8], 3.47 µM; in assay [9], 5.49 µM; in assay [10], 2.29 µM. Besides, the TGI is 25.2 µM in assay [1]; over 100 µM in assay [2]; over 100 µM in [3]; 22.3 µM in assay [4]; 19.2 µM in assay [5]; 17 µM in assay [6]. Further, the TGI in assay [7] was 31.9 µM; in assay [8] it was over 100 µM; in [9], 72.5 µM; in [10] it was 16.5 µM.

As to `O=C1C(Cl)=C(Nc2cccc(F)c2)C(=O)N1Cc1ccc(Cl)cc1`, the GI50 in assay [1] was 0.506 µM; in [2], 0.526 µM; in assay [3], 2.86 µM; in [4] it was 0.531 µM; in assay [6], 2.42 µM; in assay [7], 0.128 µM. For the same compound, the GI50 was 4.04 µM in assay [8], 2.67 µM in assay [9] and 1.73 µM in assay [10]. Besides, the TGI in [1] is over 100 µM; in assay [2], 4.53 µM; in assay [3], 9.28 µM; in [4], 13 µM; in assay [5], 2.48 µM; in [6], 8.99 µM. For the same compound, the TGI worked out at 24.6 µM in [8], 8.44 µM in assay [9] and 16.9 µM in assay [10].

Turning to `COc1ccc(/C=C/C(=O)c2cc(OC)c(OC)c(OC)c2)cc1OCc1cn(Cc2ccc(F)cc2)nn1`, the GI50 in assay [1] was 3.97 µM; in assay [2], 2.66 µM; in assay [3] it was 3.38 µM; in assay [4] it was 3.16 µM; in assay [5] it was 3.16 µM; in assay [6] it was 12.2 µM. The GI50 in [7] was 0.843 µM; in assay [8], 3.42 µM; in assay [9] it was 2.59 µM; in assay [10] it was 2.63 µM. Moreover, the TGI in [1] is 68.5 µM; in [2], over 100 µM; in [3], over 100 µM; in assay [4], over 100 µM; in assay [5], 14.3 µM; in assay [6] it was 56.2 µM. Moreover, the TGI in assay [7] was over 100 µM; in [8], over 100 µM; in [9] it was 6.64 µM; in assay [10] it was 9.13 µM.

Consider `COc1cccc(N2CCN(CC(=O)N3CCN(c4nnc(-c5ccc(Cl)cc5)c(-c5ccc(Cl)cc5)n4)CC3)CC2)c1`, for which the GI50 was 3.1 µM in assay [1]; 16.6 µM in [2]; 22 µM in [3]; 64.9 µM in assay [4]; 31.3 µM in assay [5]; 19.6 µM in assay [6]. Moreover, the GI50 in assay [7] is 5.04 µM; in assay [8], 25.3 µM; in assay [9] it was over 100 µM; in assay [10] it was 38.1 µM. Also, the TGI is over 100 µM in assay [1]; over 100 µM in assay [2]; 85.7 µM in assay [3]; over 100 µM in assay [4]; over 100 µM in [5]; 52.1 µM in [6]. The TGI was 31.3 µM in [7], over 100 µM in assay [8], over 100 µM in assay [9] and over 100 µM in assay [10].

As for `C[C@]12CC[C@@H]3c4ccc(OC(=O)N(CCCl)CCCl)cc4CC[C@H]3[C@@H]1CC[C@@H]2O`, the GI50 was 1.78 µM in [1]; 3.02 µM in [2]; 1.89 µM in assay [3]; 1.58 µM in assay [4]; 1.41 µM in assay [5]; 1.6 µM in assay [6]. Also, the GI50 was 0.135 µM in assay [7], 4.36 µM in [8], 2.53 µM in assay [9] and 2.46 µM in assay [10]. Moreover, the TGI in assay [1] was 8.15 µM; in assay [2] it was over 40.2 µM; in assay [3], 10.8 µM; in assay [5], 16.2 µM; in [6], 9 µM; in [7] it was 1.42 µM. The TGI in assay [8] is 39.5 µM; in assay [9], 8.63 µM.

On to `CCN(Cc1cc(Nc2nc(C)cn3c(-c4cn[nH]c4)cnc23)sn1)C(C)(C)CO`, for which the GI50 is 0.0465 µM in assay [1]; 0.0219 µM in [2]; 0.0227 µM in [3]; under 0.0107 µM in assay [4]; 0.0387 µM in assay [5]; under 0.01 µM in assay [6]. The GI50 in [7] was under 0.01 µM; in assay [8] it was under 0.0108 µM; in [9], 0.0822 µM; in assay [10], 0.0543 µM. For the same compound, the TGI in assay [1] was found to be 12.4 µM; in assay [2], 9.66 µM; in assay [3], 0.0855 µM; in assay [4] it was 5.08 µM; in assay [5] it was 12.8 µM; in [6], 0.0163 µM. The TGI is 1.64 µM in assay [7], 8.38 µM in [8], 6.58 µM in assay [9] and 2.21 µM in assay [10].

As to `C[C@@]1(C(=O)O)CCC[C@]2(C)C1CC[C@@]13CC(=O)[C@@](CO)(CC[C@]12O)C3` (some centres undefined), the GI50 is over 100 µM in assay [1]; over 100 µM in [2]; over 100 µM in assay [3]; over 100 µM in assay [4]; over 100 µM in assay [5]; 19.7 µM in assay [6]. Moreover, the GI50 in assay [7], in assay [8], in [9] and in assay [10] was over 100 µM each time. Moreover, the TGI in [1], in assay [2], in [3], in [4], in [5] and in assay [6] was over 100 µM in each case. Further, the TGI in assay [7], in assay [8], in [9] and in assay [10] was over 100 µM throughout.

As to `C/C(=N\NC(=S)N1CC2CCC(CC2)C1)c1nccs1`, the TGI in assay [1] was 20.7 µM; in [2] it was 16.6 µM; in [3], 38.6 µM; in assay [4] it was 18.9 µM; in [5], 0.893 µM; in assay [6], 14.3 µM. Moreover, the TGI in [7] was 6.91 µM; in assay [8], 17.6 µM; in assay [9], 12.5 µM; in assay [10], 8.87 µM.

`COc1cc(C(O)CCBr)c(OC)cc1C` (centres undefined): the TGI in assay [1] is over 100 µM; in [2] it was over 73 µM; in assay [3], over 89.4 µM; in [4] it was over 100 µM; in assay [5], 50.8 µM; in [6] it was over 100 µM. Moreover, the TGI was over 31.6 µM in [7], over 100 µM in assay [8], over 100 µM in [9] and over 100 µM in [10].

On to `N#CC1(C#N)C2(c3ccccc3)OC(c3ccccc3)(c3cc4ccccc4cc32)C1(C#N)C#N`, for which the TGI in [1] was 4.88 µM; in assay [2], 32.9 µM; in [3], 72.2 µM; in assay [4], 9.72 µM; in assay [5] it was 37 µM; in assay [6] it was 35.1 µM. For the same compound, the TGI stood at 53.8 µM in assay [7], 27.2 µM in assay [8], 28.5 µM in assay [9] and 33.9 µM in assay [10].

As to `CCN(Cc1ccc(Cl)cc1)c1ccc(CO)c(Cl)c1`, the GI50 in assay [1] is 13.5 µM; in assay [2] it was 11.5 µM; in assay [3], 6.09 µM; in assay [4], 0.824 µM; in [5] it was 0.0929 µM; in assay [6], 0.0311 µM. Besides, the GI50 in [7] was 17.7 µM; in assay [8] it was 0.543 µM; in [9] it was 7.89 µM; in assay [10], 1.35 µM. The TGI came out at 43.4 µM in [1]; 27.7 µM in assay [2]; 31.5 µM in assay [3]; 16.4 µM in assay [4]; 0.719 µM in [5]; 0.153 µM in assay [6]. In addition, the TGI came to 51.5 µM in assay [7], 11.3 µM in [8], 22.7 µM in assay [9] and 14.3 µM in assay [10].

`O.O.[NH-]C1(C(=O)O)CCCC1.[NH-]C1(C(=O)O)CCCC1.[Ni+2]`: the TGI in assay [1], in assay [2], in assay [3], in assay [4], in assay [5] and in assay [6] was over 100 µM throughout. Also, the TGI in [7], in [8], in [9] and in [10] was over 100 µM each time. Further, the GI50 is over 100 µM in assay [2], over 100 µM in assay [3], 65.9 µM in [7] and over 100 µM in [9].
